Experimental data reported in ChEMBL document CHEMBL1201862, “PubChem BioAssay data set” (2004).
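Cultured in 96-well plates, cells were exposed to test compound for 48 hours across five concentrations. At the GI50, growth is halved.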 The source made the active and inactive calls. No stated cut-off is given here; in the data, active = GI50 up to about 1.1 µM and inactive = higher.

Experiments:
Assay in all cases: NCI anticancer screen, dose series, 48 h
[1] = tested on: NCI/ADR-RES
[2] = tested on: MDA-N
[3] = tested on: SN12C
[4] = tested on: NCI-H460
[5] = tested on: SF-539
[6] = tested on: KM-20L2
[7] = tested on: 786-0
[8] = tested on: SK-MEL-28
[9] = tested on: BT-549
[10] = tested on: UACC-62
[11] = tested on: SF-295
[12] = tested on: LXFL 529
[13] = tested on: MDA-MB-231
[14] = tested on: DMS-114
[15] = tested on: MDA-MB-435
[16] = tested on: PC-3
[17] = tested on: HOP-92
[18] = tested on: HCC 2998
[19] = tested on: M19-MEL
[20] = tested on: EKVX

Measured: GI50

CC(C)(C)C(=O)OCC1C(=O)OCC1C(=O)N1Cc2cc3ccccc3nc2C1 (stereo unspecified)
inactive: [1] 4.92 µM | [2] 3.83 µM | [3] 5.28 µM | [4] 3.93 µM | [5] 4.46 µM | [6] 6.07 µM | [7] 2.5 µM | [8] 3.21 µM | [9] 3.14 µM | [10] 4.51 µM | [11] 14.3 µM | [12] 1.47 µM | [13] 4.62 µM | [14] 4.81 µM | [15] 3.9 µM | [16] 10.9 µM | [17] 1.5 µM | [18] 15.5 µM | [19] 3.54 µM | [20] 7.41 µM

COc1cc(C2C(=O)C(Cl)N2Nc2nc(C)cc(O)n2)cc(OC)c1OC (stereo unspecified)
inactive: [3] 14.7 µM | [4] 9.35 µM | [5] 13.5 µM | [6] 22.6 µM | [8] 17 µM | [10] > 10 µM | [12] 12.9 µM | [14] 8.67 µM | [17] 16.9 µM | [18] 12.9 µM | [19] 18.7 µM | [20] 33.3 µM

Cc1ccc(CCC(=O)C(=O)O)s1
inactive: [3] > 100 µM | [4] > 100 µM | [5] > 100 µM | [6] > 100 µM | [8] > 100 µM | [10] 19.4 µM | [11] > 100 µM | [12] > 100 µM | [14] > 100 µM | [17] > 100 µM | [18] > 100 µM | [19] > 100 µM | [20] > 100 µM

CC(=O)N/C(=C\c1ccc(Cc2nc3c([nH]2)C(=O)c2ccccc2C3=O)cc1)c1nc2c([nH]1)C(=O)c1ccccc1C2=O
inactive: [3] > 100 µM | [4] > 100 µM | [5] > 100 µM | [6] > 100 µM | [7] > 100 µM | [8] > 100 µM | [11] > 100 µM | [12] > 100 µM | [14] > 100 µM | [17] > 100 µM | [18] > 100 µM | [19] > 100 µM | [20] > 100 µM

COc1cc2ccc(CC(N)=O)cc2cc1OC
inactive: [3] > 100 µM | [5] > 100 µM | [6] > 100 µM | [7] > 100 µM | [8] > 100 µM | [10] > 100 µM | [11] > 100 µM | [12] > 100 µM | [14] > 100 µM | [17] > 100 µM | [19] > 100 µM | [20] > 100 µM

O=c1ccc2cc3ccc4cccc5ccc(c2o1)c3c45
inactive: [3] 25 µM | [4] 13.1 µM | [5] 9.64 µM | [6] > 100 µM | [8] > 100 µM | [10] 47 µM | [11] 33 µM | [12] 45 µM | [14] 33 µM | [17] 5.24 µM | [19] > 100 µM | [20] > 100 µM

O=C1C=CC=C/C1=C1/SC(c2ccccc2)=C(O)N1c1ccccc1
inactive: [3] > 100 µM | [5] > 100 µM | [6] > 100 µM | [7] > 100 µM | [8] > 100 µM | [10] > 100 µM | [11] > 100 µM | [12] > 100 µM | [14] > 100 µM | [17] > 100 µM | [18] > 100 µM | [19] > 100 µM | [20] > 100 µM

Clc1ccc(-c2nnc(-c3nsc4ccccc34)o2)cc1
inactive: [3] 36.6 µM | [4] 23.3 µM | [5] 20 µM | [6] 46.2 µM | [8] 33.3 µM | [10] 54 µM | [12] 71 µM | [14] 65.6 µM | [17] 17.9 µM | [18] 24.9 µM | [19] > 100 µM | [20] 14.2 µM

O=C(N/N=C/C=C/c1ccccc1)[C@H](O)[C@@H](O)C(=O)N/N=C/C=C/c1ccccc1
inactive: [3] > 100 µM | [4] > 100 µM | [5] > 100 µM | [6] > 100 µM | [8] > 100 µM | [10] > 100 µM | [11] > 100 µM | [12] > 100 µM | [14] > 100 µM | [18] > 100 µM | [19] > 100 µM | [20] > 100 µM

O=C1CN2C(Cl)(Cl)C2(c2ccccc2)c2cc(Cl)ccc2N1CC1CC1 (stereo unspecified)
inactive: [3] 20.8 µM | [4] 16.3 µM | [6] 23.4 µM | [8] 17.3 µM | [11] 9.46 µM | [12] 42.4 µM | [14] 36.2 µM | [17] 12.3 µM | [18] 18.7 µM | [19] 35.4 µM | [20] 31.8 µM

CC1(C)N=C(Oc2ccccc2)n2nccc2N1
inactive: [3] > 100 µM | [4] 75 µM | [5] > 100 µM | [6] > 100 µM | [7] 59.4 µM | [8] > 100 µM | [10] 63.4 µM | [11] > 100 µM | [12] > 100 µM | [14] > 100 µM | [17] > 100 µM | [18] > 100 µM | [19] > 100 µM | [20] > 100 µM

O=C1CCC(c2ccccc2)=NN1c1nsc2ccccc12
inactive: [3] > 100 µM | [4] 47.9 µM | [5] > 100 µM | [6] > 100 µM | [8] > 100 µM | [10] > 100 µM | [12] > 100 µM | [14] 62.7 µM | [17] > 100 µM | [18] 60.8 µM | [19] > 100 µM | [20] 82.6 µM
